≈ marks a conversion by molar mass, not a printed value. Read-outs that look alike come from different tables or passages of the source.
Columns and labels:
Format in all cases: cell-based
[1] = system: E. coli KA797 cells carrying pUK21 vector without the β-lactamase gene; experiment: microbe, parasite or virus in culture; details: Escherichia coli; antibiotic alone; pUK21 without β-lactamase gene; read-out: MIC
[2] = system: E. coli KA797 cells carrying pUK21 with CTX-M-14 WT (Tat); experiment: microbe, parasite or virus in culture; details: Escherichia coli, antibiotic alone
[3] = system: E. coli KA797 cells carrying NmcA position 105 library
[4] = system: E. coli KA797 cells carrying TEM-1 position 105 library; details: for Fi AMP AVG: average of replicates

## CC1(C)S[C@@H]2[C@H](NC(=O)[C@H](N)c3ccccc3)C(=O)N2[C@H]1C(=O)O [ampicillin]
[1]
  MIC: 10 µg/mL (≈ 28.6 µM)
[2]
  MIC: 1600 µg/mL (≈ 4580 µM)
[3]; NmcA AA 105 Ala
  Fi AVG (average fitness of replicates): -0.604
  Significance of average fitness: -
[3]; NmcA AA 105 Arg
  Fi AVG (average fitness of replicates): -0.595
  Significance of average fitness: -
[3]; NmcA AA 105 Asn
  Fi AVG (average fitness of replicates): -0.193
  Significance of average fitness: -
[3]; NmcA AA 105 Asp
  Fi AVG (average fitness of replicates): -0.514
  Significance of average fitness: -
[3]; NmcA AA 105 Cys
  Fi AVG (average fitness of replicates): -0.572
  Significance of average fitness: -
[3]; NmcA AA 105 Gln
  Fi AVG (average fitness of replicates): -0.362
  Significance of average fitness: -
[3]; NmcA AA 105 Glu
  Fi AVG (average fitness of replicates): -0.554
  Significance of average fitness: -
[3]; NmcA AA 105 Gly
  Fi AVG (average fitness of replicates): -0.012
[3]; NmcA AA 105 His
  Fi AVG (average fitness of replicates): 0.000
[3]; NmcA AA 105 Ile
  Fi AVG (average fitness of replicates): -0.668
  Significance of average fitness: -
[3]; NmcA AA 105 Leu
  Fi AVG (average fitness of replicates): -0.515
  Significance of average fitness: -
[3]; NmcA AA 105 Lys
  Fi AVG (average fitness of replicates): -0.761
  Significance of average fitness: -
[3]; NmcA AA 105 Met
  Fi AVG (average fitness of replicates): -0.296
  Significance of average fitness: -
[3]; NmcA AA 105 Phe
  Fi AVG (average fitness of replicates): -0.065
[3]; NmcA AA 105 Pro
  Fi AVG (average fitness of replicates): -0.462
  Significance of average fitness: -
[3]; NmcA AA 105 Ser
  Fi AVG (average fitness of replicates): -0.413
  Significance of average fitness: -
[3]; NmcA AA 105 Thr
  Fi AVG (average fitness of replicates): -0.905
  Significance of average fitness: -
[3]; NmcA AA 105 Trp
  Fi AVG (average fitness of replicates): 0.277
  Significance of average fitness: +
[3]; NmcA AA 105 Tyr
  Fi AVG (average fitness of replicates): 0.049
[3]; NmcA AA 105 Val
  Fi AVG (average fitness of replicates): -0.608
  Significance of average fitness: -
[3]; NmcA WT, replicate 1
  WT abs Fi 1 (absolute fitness): 0.229
[3]; NmcA WT, replicate 2
  WT abs Fi 2 (absolute fitness): 0.425
[4]; AA 105 Ala
  Significance (Average fitnes AMP): -
  Fi AMP AVG: -0.222
[4]; AA 105 Ala, replicate 1
  Fi AMP 1: -0.205
[4]; AA 105 Ala, replicate 2
  Fi AMP 2: -0.239
[4]; AA 105 Arg
  Significance (Average fitnes AMP): -
  Fi AMP AVG: -0.576
[4]; AA 105 Arg, replicate 1
  Fi AMP 1: -0.568
[4]; AA 105 Arg, replicate 2
  Fi AMP 2: -0.584
[4]; AA 105 Asn
  Significance (Average fitnes AMP): -
  Fi AMP AVG: -0.070
[4]; AA 105 Asn, replicate 1
  Fi AMP 1: -0.049
[4]; AA 105 Asn, replicate 2
  Fi AMP 2: -0.091
[4]; AA 105 Asp
  Significance (Average fitnes AMP): -
  Fi AMP AVG: -0.429
[4]; AA 105 Asp, replicate 1
  Fi AMP 1: -0.401
[4]; AA 105 Asp, replicate 2
  Fi AMP 2: -0.457
[4]; AA 105 Cys
  Significance (Average fitnes AMP): -
  Fi AMP AVG: -0.587
[4]; AA 105 Cys, replicate 1
  Fi AMP 1: -0.602
[4]; AA 105 Cys, replicate 2
  Fi AMP 2: -0.572
[4]; AA 105 Gln
  Significance (Average fitnes AMP): -
  Fi AMP AVG: -0.282
[4]; AA 105 Gln, replicate 1
  Fi AMP 1: -0.271
[4]; AA 105 Gln, replicate 2
  Fi AMP 2: -0.293
[4]; AA 105 Glu
  Significance (Average fitnes AMP): -
  Fi AMP AVG: -0.667
[4]; AA 105 Glu, replicate 1
  Fi AMP 1: -0.663
[4]; AA 105 Glu, replicate 2
  Fi AMP 2: -0.672
[4]; AA 105 Gly
  Significance (Average fitnes AMP): -
  Fi AMP AVG: -0.061
[4]; AA 105 Gly, replicate 1
  Fi AMP 1: -0.036
[4]; AA 105 Gly, replicate 2
  Fi AMP 2: -0.087
[4]; AA 105 His
  Significance (Average fitnes AMP): -
  Fi AMP AVG: -0.071
[4]; AA 105 His, replicate 1
  Fi AMP 1: -0.065
[4]; AA 105 His, replicate 2
  Fi AMP 2: -0.077
[4]; AA 105 Ile
  Significance (Average fitnes AMP): -
  Fi AMP AVG: -0.580
[4]; AA 105 Ile, replicate 1
  Fi AMP 1: -0.558
[4]; AA 105 Ile, replicate 2
  Fi AMP 2: -0.602
[4]; AA 105 Leu
  Significance (Average fitnes AMP): -
  Fi AMP AVG: -0.490
[4]; AA 105 Leu, replicate 1
  Fi AMP 1: -0.459
[4]; AA 105 Leu, replicate 2
  Fi AMP 2: -0.521
[4]; AA 105 Lys
  Significance (Average fitnes AMP): -
  Fi AMP AVG: -0.754
[4]; AA 105 Lys, replicate 1
  Fi AMP 1: -0.749
[4]; AA 105 Lys, replicate 2
  Fi AMP 2: -0.759
[4]; AA 105 Met
  Significance (Average fitnes AMP): -
  Fi AMP AVG: -0.188
[4]; AA 105 Met, replicate 1
  Fi AMP 1: -0.138
[4]; AA 105 Met, replicate 2
  Fi AMP 2: -0.238
[4]; AA 105 Phe
  Significance (Average fitnes AMP): -
  Fi AMP AVG: -0.048
[4]; AA 105 Phe, replicate 1
  Fi AMP 1: -0.041
[4]; AA 105 Phe, replicate 2
  Fi AMP 2: -0.054
[4]; AA 105 Pro
  Significance (Average fitnes AMP): -
  Fi AMP AVG: -0.152
[4]; AA 105 Pro, replicate 1
  Fi AMP 1: -0.157
[4]; AA 105 Pro, replicate 2
  Fi AMP 2: -0.147
[4]; AA 105 Ser
  Significance (Average fitnes AMP): -
  Fi AMP AVG: -0.203
[4]; AA 105 Ser, replicate 1
  Fi AMP 1: -0.219
[4]; AA 105 Ser, replicate 2
  Fi AMP 2: -0.186
[4]; AA 105 Thr
  Significance (Average fitnes AMP): -
  Fi AMP AVG: -0.391
[4]; AA 105 Thr, replicate 1
  Fi AMP 1: -0.402
[4]; AA 105 Thr, replicate 2
  Fi AMP 2: -0.379
[4]; AA 105 Trp
  Fi AMP AVG: 0.019
[4]; AA 105 Trp, replicate 1
  Fi AMP 1: 0.033
[4]; AA 105 Trp, replicate 2
  Fi AMP 2: 0.006
[4]; AA 105 Tyr
  Fi AMP AVG: 0.000
[4]; AA 105 Tyr, replicate 1
  Fi AMP 1: 0.000
[4]; AA 105 Tyr, replicate 2
  Fi AMP 2: 0.000
[4]; AA 105 Val
  Significance (Average fitnes AMP): -
  Fi AMP AVG: -0.403
[4]; AA 105 Val, replicate 1
  Fi AMP 1: -0.371
[4]; AA 105 Val, replicate 2
  Fi AMP 2: -0.435
[4]; absolute fitness of TEM-1 WT, AMP, replicate 1
  WT abs Fi 1: 0.351
[4]; absolute fitness of TEM-1 WT, AMP, replicate 2
  WT abs Fi 2: 0.374
